Measured values from patent publication US12077503B2, “Substituted cyclic amides and their use as herbicides” (FMC CORPORATION, priority 2015, dated 2024).

Assays:
Assay type in all cases: in vivo
Kochia (Kochia scoparia) [1] = assay: Test A preemergence; details: Bassia scoparia, pre-emergence, 240 h, Preemergence
In short: (§1)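 Compounds were formulated in a non-phytotoxic solvent mixture with surfactant and applied as a preemergence directed soil spray after seeding, or sprayed postemergence over plants 2 to 10 cm tall at the one- to two-leaf stage. Evaluation after about 10 d compared treated with untreated controls, using a scale from 0 (no effect) to 100 (complete control).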

[2] = tested on: barnyardgrass (Echinochloa crus-galli); assay: Test A preemergence; details: Echinochloa crus-galli, pre-emergence, 240 h, Preemergence
In short: as §1

[3] = tested on: giant foxtail (Setaria faberii); assay: Test A preemergence; details: Setaria faberi, pre-emergence, 240 h, Preemergence
In short: as §1

[4] = tested on: pigweed (Amaranthus retroflexus); assay: Test A preemergence; details: Amaranthus retroflexus, pre-emergence, 240 h, Preemergence
[5] = tested on: ragweed (common ragweed, Ambrosia elatior); assay: Test A preemergence; details: Ambrosia artemisiifolia, pre-emergence, 240 h, Preemergence
In short: as §1

[6] = tested on: ryegrass, Italian (Italian ryegrass, Lolium multiflorum); assay: Test A preemergence; details: Lolium multiflorum, pre-emergence, 240 h, Preemergence
In short: as §1

[7] = tested on: Galium (catchweed bedstraw, Galium aparine); assay: Test A postemergence; details: Galium, post-emergence, 240 h, Postemergence, read-out: Plant response rating, Galium
In short: as §1

Kochia (Kochia scoparia) [8] = assay: Test A postemergence; details: Bassia scoparia, post-emergence, 240 h, Postemergence, read-out: Plant response rating, Kochia
In short: as §1

[9] = tested on: barnyardgrass (Echinochloa crus-galli); assay: Test A postemergence; details: Echinochloa crus-galli, post-emergence, 240 h, Postemergence, read-out: Plant response rating, Barnyardgrass
In short: as §1

[10] = tested on: blackgrass (Alopecurus myosuroides); assay: Test A postemergence; details: Alopecurus myosuroides, post-emergence, 240 h, Postemergence, read-out: Plant response rating, Blackgrass
In short: as §1

corn (Zea mays) = assay: Test A postemergence; details: Zea mays, post-emergence, 240 h, Postemergence
In short: as §1

[11] = tested on: giant foxtail (Setaria faberii); assay: Test A postemergence; details: Setaria faberi, post-emergence, 240 h, Postemergence, read-out: Plant response rating, Foxtail, Giant
In short: as §1

[12] = tested on: pigweed (Amaranthus retroflexus); assay: Test A postemergence; details: Amaranthus retroflexus, post-emergence, 240 h, Postemergence, read-out: Plant response rating, Pigweed
In short: as §1

[13] = tested on: ragweed (common ragweed, Ambrosia elatior); assay: Test A postemergence; details: Ambrosia artemisiifolia, post-emergence, 240 h, Postemergence, read-out: Plant response rating, Ragweed
In short: as §1

[14] = tested on: ryegrass, Italian (Italian ryegrass, Lolium multiflorum); assay: Test A postemergence; details: Lolium multiflorum, post-emergence, 240 h, Postemergence, read-out: Plant response rating, Ryegrass, Italian
In short: as §1

[15] = tested on: wheat (Triticum aestivum); assay: Test A postemergence; details: Triticum aestivum, post-emergence, 240 h, Postemergence, read-out: Plant response rating, Wheat
In short: as §1

[16] = tested on: barnyardgrass (Echinochloa crus-galli); assay: Test B flooded paddy test; details: Echinochloa crus-galli, 250 g ai/ha, Flood; 0 to 100 scale where 0 is no effect and 100 is complete control; read-out: Barnyardgrass plant response rating
In short: (§2)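 Evaluation by eye, against controls, occurred 13–15 d post-treatment in a greenhouse, using a 0 (no effect) to 100 (complete control) scale. Application was into the paddy water, 3 cm deep over the soil, on 2-leaf plants.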

[17] = tested on: ducksalad (Heteranthera limosa); assay: Test B flooded paddy test; details: Heteranthera limosa, 250 g ai/ha, Flood; 0 to 100 scale where 0 is no effect and 100 is complete control; read-out: Ducksalad plant response rating
In short: as §2

rice (Oryra sativa) = assay: Test B flooded paddy test; details: Oryza sativa, 250 g ai/ha, Flood; 0 to 100 scale where 0 is no effect and 100 is complete control; read-out: Rice plant response rating
In short: as §2

[18] = tested on: sedge, umbrella (small-flower umbrella sedge, Cyperus difformis); assay: Test B flooded paddy test; details: Cyperus difformis, 250 g ai/ha, Flood; 0 to 100 scale where 0 is no effect and 100 is complete control; read-out: Sedge, Umbrella plant response rating
In short: as §2

[19] = 125 g ai/ha, visual injury after approximately 10 d, 0 to 100 scale where 0 is no effect and 100 is complete control
[20] = 31 g ai/ha, visual injury after approx. 10 d, 0 to 100 scale, 0 no effect, 100 complete control

O=C(Nc1cccc(F)c1F)[C@H]1C(=O)N(O)CC[C@@H]1c1ccccc1 [Compound 1007]
0%: pest or weed control at 31 g/ha (Kochia (Kochia scoparia) [1]; 31 g ai/ha, 0 to 100 scale where 0 is no effect and 100 is complete control, read-out: Kochia plant response rating) | pest or weed control at 125 g/ha (Kochia (Kochia scoparia) [1]; 125 g ai/ha, visual injury rating after approximately 10 d, read-out: Kochia plant response rating (0 to 100 scale, 0 is no effect, 100 is complete control)) | pest or weed control at 125 g/ha ([2]; 125 g ai/ha, visual injury rating after approximately 10 d, read-out: Barnyardgrass plant response rating (0 to 100 scale, 0 is no effect, 100 is complete control)) | pest or weed control at 31 g/ha ([2]; 31 g ai/ha, 0 to 100 scale (0 no effect, 100 complete control), read-out: Plant response rating, Barnyardgrass) | pest or weed control at 125 g/ha ([3]; 125 g ai/ha, visual injury rating after approximately 10 d, read-out: Foxtail, Giant plant response rating (0 to 100 scale, 0 is no effect, 100 is complete control)) | pest or weed control at 31 g/ha ([3]; 31 g ai/ha, 0 to 100 scale (0 no effect, 100 complete control), read-out: Plant response rating, Foxtail, Giant) | pest or weed control at 31 g/ha ([4]; 31 g ai/ha, 0 to 100 scale where 0 is no effect and 100 is complete control, read-out: Pigweed plant response rating) | pest or weed control at 125 g/ha ([4]; 125 g ai/ha, visual injury rating after approximately 10 d, read-out: Pigweed plant response rating (0 to 100 scale, 0 is no effect, 100 is complete control)) | pest or weed control at 31 g/ha ([5]; 31 g ai/ha, 0 to 100 scale where 0 is no effect and 100 is complete control, read-out: Ragweed plant response rating) | pest or weed control at 125 g/ha ([5]; 125 g ai/ha, visual injury rating after approximately 10 d, read-out: Ragweed plant response rating (0 to 100 scale, 0 is no effect, 100 is complete control)) | pest or weed control at 31 g/ha ([6]; 31 g ai/ha, 0 to 100 scale where 0 is no effect and 100 is complete control, read-out: Ryegrass, Italian plant response rating) | pest or weed control at 125 g/ha ([6]; 125 g ai/ha, visual injury rating after approximately 10 d, read-out: Ryegrass, Italian plant response rating (0 to 100 scale, 0 is no effect, 100 is complete control)) | pest or weed control at 125 g/ha [7, 19] | pest or weed control at 31 g/ha [7, 20] | pest or weed control at 125 g/ha (Kochia (Kochia scoparia) [8]; [19]) | pest or weed control at 31 g/ha (Kochia (Kochia scoparia) [8]; [20]) | pest or weed control at 125 g/ha [9, 19] | pest or weed control at 31 g/ha [9, 20] | pest or weed control at 125 g/ha [10, 19] | pest or weed control at 31 g/ha [10, 20] | Corn plant response rating (crop injury, 0 = no effect, 100 = complete kill) at 125 g/ha (corn (Zea mays); [19]) | Corn plant response rating (crop injury, 0 = no effect, 100 = complete kill) at 31 g/ha (corn (Zea mays); [20]) | pest or weed control at 125 g/ha [11, 19] | pest or weed control at 31 g/ha [11, 20] | pest or weed control at 125 g/ha [12, 19] | pest or weed control at 31 g/ha [12, 20] | pest or weed control at 125 g/ha [13, 19] | pest or weed control at 31 g/ha [13, 20] | pest or weed control at 125 g/ha [14, 19] | pest or weed control at 31 g/ha [14, 20] | plant injury at 125 g/ha [15, 19] | plant injury at 31 g/ha [15, 20] | pest or weed control at 250 g/ha [16] | pest or weed control at 250 g/ha [17] | pest or weed control at 250 g/ha (rice (Oryra sativa)) | pest or weed control at 250 g/ha [18]
